Measured values published in patent US20240067639A1, “SMALL MOLECULES THAT TARGET THE RNA THAT CAUSES ALS” (EXPANSION THERAPEUTICS, INC., priority 2020, published 2024).
pKi: −log10 of the molar value. Where two headings read alike, the source gives them in different places.

Key:
[1] = target: biotinylated r(G4C2)8 RNA and hnRNP H1-His6; experiment: TR-FRET hnRNP H binding assay
Method: TR-FRET hnRNP H Binding Assay. The TR-FRET assays were performed as previously described (Disney et al., 2012) except the final concentrations of biotinylated r(G4C2)8 (SEQ ID NO: 2) RNA and hnRNP H1-His6 were 80 nM and 75 nM, respectively. The RNA was folded by heating to 95° C. for 5 min in 1× Folding Buffer followed by slowly cooling to room temperature. The buffer was adjusted to 1×TR-FRET Assay Buffer followed by addition of compound. The mixture was incubated for 15 min at room temperature and then hnRNP H1-His6 was added. After an additional 15 min incubation, streptavidin-XL665 (HTRF, Cisbio Bioassays) and anti-His6-Tb (HTRF, Cisbio Bioassays) were added to a final concentration of 40 nM and 0.44 ng/μL, respectively. After incubating for 1 h, TR-FRET was measured as previously described. The IC50s were either calculated by fitting the equation (1) in Graphpad Prism.

[2] = system: RAN translation of (G4C2)66-No ATG-GFP in HEK293T cells; experiment: Cell-based assay of RAN translation inhibition (GFP/mCherry reporter); conditions: Homo sapiens, HEK-293T, 24 h, read-out: RANT IC25
[3] = Table D, HEK293T, 24 h treatment
[4] = Table F, HEK293T, 24 h treatment

Row | Compound | pKi ([1]; Table D) | pKi ([1]; Table F) | IC25 [2, 3] [µM] | IC25 [2] [µM] | IC25 [2, 4] [µM]
1 | Cc1c2ccncc2cc2c3cc(OCCN4CCOCC4)ccc3n(C(C)C)c12 [Compound 235, 4-(2-((6-isopropyl-5-methyl-6H-pyrido[4,3-b]carbazol-9-yl)oxy)ethyl)morpholine] | – | < 3.70 | – | > 5 | –
2 | Cc1c2ccncc2cc2c3cc(C(=O)NCCO)ccc3n(C)c12 [Compound 214, N-(2-hydroxyethyl)-5,6-dimethyl-6H-pyrido[4,3-b]carbazole-9-carboxamide] | – | 5.44 | – | – | 1
3 | Cc1c2ccncc2cc2c3cc(OCCCN(C)C)ccc3n(C)c12 [Compound 6, 3-((5,6-dimethyl-6H-pyrido[4,3-b]carbazol-9-yl)oxy)-N,N-dimethylpropan-1-amine] | 4.49 | – | > 5 | – | –
4 | Cc1c2ccncc2cc2c3cc(OC[C@@H](C)N(C)C)ccc3n(C)c12 [Compound 242, (R)-1-((5,6-dimethyl-6H-pyrido[4,3-b]carbazol-9-yl)oxy)-N,N-dimethylpropan-2-amine] | – | 6.30 | – | – | 1.5
5 | Cc1c2ccncc2cc2c3cc(OC[C@H](C)N)ccc3n(C)c12 [Compound 218, (S)-1-((5,6-dimethyl-6H-pyrido[4,3-b]carbazol-9-yl)oxy)propan-2-amine] | – | 6.10 | – | – | 0.84
6 | CCN(CC)CCCOc1ccc2c(c1)c1cc3cnccc3c(C)c1n2C [Compound 10, 3-((5,6-dimethyl-6H-pyrido[4,3-b]carbazol-9-yl)oxy)-N,N-diethylpropan-1-amine] | 5.14 | – | 3.2 | – | –
7 | Cc1c2ccncc2cc2c3cccc(OCC4=NCCN4)c3n(C)c12 [Compound 232, 7-((4,5-dihydro-1H-imidazol-2-yl)methoxy)-5,6-dimethyl-6H-pyrido[4,3-b]carbazole] | – | 5.70 | – | – | > 5
8 | Cc1c2ccncc2cc2c1oc1ccc(OCCN3CCOCC3)cc12 [Compound 231, 5-methyl-9-(2-morpholinoethoxy)benzofuro[2,3-g]isoquinoline] | – | < 3.70 | – | > 5 | –
9 | Cc1c2ccncc2cc2c3cc(OCCN4CCOCC4)ccc3n(C)c12 [Compound 11, 4-(2-((5,6-dimethyl-6H-pyrido[4,3-b]carbazol-9-yl)oxy)ethyl)morpholine] | 4.80 | – | 0.4 | – | –
10 | CCn1c2ccc(OCC3=NCCN3)cc2c2cc3cnccc3cc21 [Compound 255, 9-(4,5-dihydro-1H-imidazol-2-ylmethoxy)-6-ethyl-pyrido[4,3-b]carbazole] | – | 5.06 | – | – | 1.25
11 | Cc1c2ccncc2cc2c3cc(N4CCNC5(CC5)C4)ccc3n(C)c12 [Compound 246, 5,6-dimethyl-9-(4,7-diazaspiro[2.5]octan-7-yl)-6H-pyrido[4,3-b]carbazole] | – | 5.80 | – | – | > 5
12 | Cc1c2ccncc2cc2c3cc(OCC(=O)NCCN)ccc3n(C)c12 [Compound 4a, N-(2-aminoethyl)-2-((5,6-dimethyl-6H-pyrido[4,3-b]carbazol-9-yl)oxy)acetamide] | 5.35 | – | 0.9 | – | –
13 | CCN(CC)CCOc1ccc2c(c1)c1cc3cnccc3c(C)c1n2C [Example 33, 2-((5,6-dimethyl-6H-pyrido[4,3-b]carbazol-9-yl)oxy)-N,N-diethylethanamine] | 5.28 | – | – | 3.7 | –
14 | Cc1c2ccncc2cc2c3cc(OCCN4CCS(=O)(=O)CC4)ccc3n(C)c12 [Compound 217, 4-(2-((5,6-dimethyl-6H-pyrido[4,3-b]carbazol-9-yl)oxy)ethyl)thiomorpholine 1,1-dioxide] | – | 5.07 | – | – | > 5
15 | Cc1c2ccncc2cc2c3cc(OCC(N)=O)ccc3n(C)c12 [Compound 12, 2-((5,6-dimethyl-6H-pyrido[4,3-b]carbazol-9-yl)oxy)acetamide] | 4.74 | – | 0.3 | – | –
16 | Cc1c2ccncc2cc2c3cccc(OCCN(C)C)c3n(C)c12 [Compound 220, 2-((5,6-dimethyl-6H-pyrido[4,3-b]carbazol-7-yl)oxy)-N,N-dimethylethanamine] | – | 5.64 | – | > 5 | –
17 | Cc1c2ccncc2cc2c3cc(OCC4=NCCN4)ccc3n(C)c12 [Compound 3, 9-((4,5-dihydro-1H-imidazol-2-yl)methoxy)-5,6-dimethyl-6H-pyrido[4,3-b] carbazole] | 5.08 | – | 0.1 | – | –
18 | Cc1c2ccncc2cc2c3cc(OCC(=O)N4CCN(C)CC4)ccc3n(C)c12 [Example 60, 2-((5,6-dimethyl-6H-pyrido[4,3-b]carbazol-9-yl)oxy)-1-(4-methylpiperazin-1-yl)ethanone] | 5.42 | – | > 5 | – | –
19 | Cc1c2ccncc2cc2c3cc(OCC4=NCCN4)cc(F)c3n(C)c12 [Compound 254, 9-((4,5-dihydro-1H-imidazol-2-yl)methoxy)-7-fluoro-5,6-dimethyl-6H-pyrido[4,3-b]carbazole] | – | 5.74 | – | – | > 5
20 | Cc1c2ccncc2cc2c3cc(OC[C@H](C)N(C)C)ccc3n(C)c12 [Compound 230, (S)-1-((5,6-dimethyl-6H-pyrido[4,3-b]carbazol-9-yl)oxy)-N,N-dimethylpropan-2-amine] | – | 5.92 | – | – | 4.3

Further lines, with some results ahead:

Row | pKi ([1]; Table D) | pKi ([1]; Table F) | Compound | IC25 [2, 3] [µM] | IC25 [2] [µM] | IC25 [2, 4] [µM]
21 | 3.97 | – | Cc1c2ccncc2cc2c3cc(C(=O)N(C)C)ccc3n(C)c12 [Example 71, N,N,5,6-tetramethyl-6H-pyrido[4,3-b]carbazole-9-carboxamide] | > 5 | – | –
22 | 5.28 | – | Cc1c2ccncc2cc2c3cc(OCC(=O)N(C)C)ccc3n(C)c12 [Example 57, 2-((5,6-dimethyl-6H-pyrido[4,3-b]carbazol-9-yl)oxy)-N,N-dimethylacetamide] | 4 | – | –
23 | 6.05 | – | Cc1c2ccncc2cc2c3cc(OC[C@@H](C)N)ccc3n(C)c12 [Example 61, (R)-1-((5,6-dimethyl-6H-pyrido[4,3-b]carbazol-9-yl)oxy)propan-2-amine] | 1 | – | –
24 | – | 5.24 | Cc1c2ccncc2cc2c1[nH]c1ccc(OCC3=NCCN3)cc12 [Compound 257, 9-((4,5-dihydro-1H-imidazol-2-yl)methoxy)-5-methyl-6H-pyrido[4,3-b]carbazole] | – | – | 2.7
25 | < 3.70 | – | Cc1c2ccncc2cc2c3cccc(OCCN4CCOCC4)c3n(C)c12 [Example 64, 4-(2-((5,6-dimethyl-6H-pyrido[4,3-b]carbazol-7-yl)oxy)ethyl) morpholine] | > 5 | – | –
26 | < 3.70 | – | CCn1c2ccc(OCCN3CCOCC3)cc2c2cc3cnccc3c(C)c21 [Example 62, 4-[2-(6-ethyl-5-methyl-pyrido[4,3-b]carbazol-9-yl)oxyethyl]morpholine] | > 5 | – | –
27 | 6.00 | – | Cc1c2ccncc2cc2c3c(OCC4=NCCN4)cccc3n(C)c12 [Example 56, 10-((4,5-dihydro-1H-imidazol-2-yl)methoxy)-5,6-dimethyl-6H-pyrido[4,3-b]carbazole] | 0.67 | – | –
28 | 4.42 | – | Cc1c2ccncc2cc2c3cc(OCc4nccn4C)ccc3n(C)c12 [Example 35, 5,6-dimethyl-9-((1-methyl-1H-imidazol-2-yl)methoxy)-6H-pyrido[4,3-b]carbazole] | > 5 | – | –
29 | 5.64 | – | Cc1c2cnccc2cc2c3cc(OCC4=NCCN4)ccc3n(C)c12 [Example 83, 7-(4,5-dihydro-1H-imidazol-2-ylmethoxy)-10,11-dimethyl-pyrido[3,4-b]carbazole] | 1.1 | – | –
30 | 4.70 | – | COc1ccc2c3cc4c(C(=O)N[C@H](C)CN(C)C)nccc4c(C)c3n(C)c2c1 [Example 82, (R)—N-(1-(dimethylamino)propan-2-yl)-8-methoxy-5,6-dimethyl-6H-pyrido[4,3-b]carbazole-1-carboxamide] | > 5 | – | –
31 | 4.92 | – | Cc1c2ccncc2cc2c3cc(C(N)=O)ccc3n(C)c12 [Example 69, 5,6-dimethyl-6H-pyrido[4,3-b]carbazole-9-carboxamide] | 1.6 | – | –
32 | 5.38 | – | Cc1c2ccncc2cc2c3cc(C(=O)N4CCN(C)CC4)ccc3n(C)c12 [Example 76, (5,6-dimethyl-6H-pyrido[4,3-b]carbazol-9-yl)(4-methylpiperazin-1-yl)methanone] | 2.2 | – | –
33 | 6.10 | – | Cc1c2ccncc2cc2c3cc(OC[C@@H]4CCCN4)ccc3n(C)c12 [Example 39, (S)-5,6-dimethyl-9-(pyrrolidin-2-ylmethoxy)-6H-pyrido[4,3-b]carbazole] | 1.3 | – | –
34 | 5.02 | – | Cc1c2ccncc2cc2c3cc(OCCN)ccc3n(C)c12 [Example 32, 2-((5,6-dimethyl-6H-pyrido[4,3-b]carbazol-9-yl)oxy)ethanamine] | 1.4 | – | –
35 | 4.89 | – | Cc1c2ccncc2cc2c3cc(OCC4=NCCN4)ccc3n(C(C)C)c12 [Example 84, 9-(4,5-dihydro-1H-imidazol-2-ylmethoxy)-6-isopropyl-5-methyl-pyrido[4,3-b]carbazole] | > 5 | – | –
36 | 5.25 | – | Cc1c2ccncc2cc2c3ccc(OCC4=NCCN4)cc3n(C)c12 [Example 52, 8-((4,5-dihydro-1H-imidazol-2-yl)methoxy)-5,6-dimethyl-6H-pyrido[4,3-b]carbazole] | 3.1 | – | –
37 | 5.40 | – | Cc1c2ccncc2cc2c3cc(C(=O)NCCN(C)C)ccc3n(C)c12 [Example 68, N-(2-(dimethylamino)ethyl)-5,6-dimethyl-6H-pyrido[4,3-b]carbazole-9-carboxamide] | 0.72 | – | –
